From patent publication US8088806B2 (Achillion Pharmaceuticals, Inc., priority 2005, dated 2012)

tested on: HCV replicon; experiment: Replicon based assay of HCV replication inhibition (NPT ELISA); assay type: cell-based, Hepatitis C virus; details: Hepatitis C virus, Huh-7, 72 h, Table III; Huh-7 HCV replicon-containing cells, three days; read-out: Activity
Method in brief: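 Huh-7 cells carrying a bicistronic HCV replicon (neo, EMCV-IRES-driven NS3–NS5B) treated overnight after seeding with usually 6 concentrations, 10 to 0.03 micromolar, for three days at 37° C without G418. Replication read as NPT level by captured ELISA; matched-DMSO wells and interferon alpha as controls.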

Row | Structure (SMILES) | EC50
1 | CCCCCCCCOc1ccc(Nc2nc(-c3ccsc3C(N)=O)cs2)cc1C(F)(F)F [compound 667, 3-(2-(3-(trifluoromethyl)-4-(octyloxy)phenylamino)thiazol-4-yl)thiophene-2-carboxamide] | < 1000 nM
2 | CCCCCCCCOc1ccc(Nc2nc(-c3ccc(-c4csnn4)cc3)cs2)cc1C(F)(F)F [compound 668, 4-(4-(1,2,3-thiadiazol-4-yl)phenyl)-N-(3-(trifluoromethyl)-4-(octyloxy)phenyl)thiazol-2-amine] | < 1000 nM
3 | CCCCCCCCOc1ccc(Nc2nc(-c3ccc4c(c3)SCC(=O)N4)cs2)cc1C(F)(F)F [compound 669, 7-(2-(3-(trifluoromethyl)-4-(octyloxy)phenylamino)thiazol-4-yl)-2H-benzo[b][1,4]thiazin-3(4H)-one] | < 1000 nM
4 | CCCCCCCCOc1ccc(Nc2nc(-c3ccc(N)nn3)cs2)cc1C(F)(F)F [compound 670, 6-(2-(3-(trifluoromethyl)-4-(octyloxy)phenylamino)thiazol-4-yl)pyridazin-3-amine] | < 1000 nM
5 | CCCCCCCCOc1ccc(Nc2nc(-c3ccsc3C#N)cs2)cc1C(F)(F)F [compound 671, 3-(2-(3-(trifluoromethyl)-4-(octyloxy)phenylamino)thiazol-4-yl)thiophene-2-carbonitrile] | < 1000 nM
6 | CCCCCCCCOc1ccc(Nc2nc(-c3cnc(Cl)c(C(=O)OC)c3)cs2)cc1C(F)(F)F [compound 672, methyl 5-(2-(3-(trifluoromethyl)-4-(octyloxy)phenylamino)thiazol-4-yl)-2-chloropyridine-3-carboxylate] | < 1000 nM
7 | CCCCCCCCOc1ccc(Nc2nc(-c3ccc4nccn4c3)cs2)cc1C(F)(F)F [compound 673, N-(3-(trifluoromethyl)-4-(octyloxy)phenyl)-4-(H-imidazo[1,2-a]pyridin-6-yl)thiazol-2-amine] | < 1000 nM
8 | CCCCCCCCOc1ccc(Nc2nc(-c3cnc4ccc(C#N)cn34)cs2)cc1C(F)(F)F [compound 674, 3-(2-(3-(trifluoromethyl)-4-(octyloxy)phenylamino)thiazol-4-yl)H-imidazo[1,2-a]pyridine-6-carbonitrile] | < 1000 nM
9 | CCCCCCC(C)Oc1ccc(Nc2nc(-c3cccnc3)cs2)cc1C(F)(F)F (stereo not drawn) [compound 675, N-(3-(trifluoromethyl)-4-(octan-2-yloxy)phenyl)-4-(pyridin-3-yl)thiazol-2-amine] | < 1000 nM
10 | CCCCCCC(C)Oc1ccc(Nc2nc(-c3ccc(NC(C)=O)nc3)cs2)cc1C(F)(F)F (stereo not drawn) [compound 676, N-(5-(2-(3-(trifluoromethyl)-4-(octan-2-yloxy)phenylamino)thiazol-4-yl)pyridin-2-yl)acetamide] | < 1000 nM
11 | CCCCCCC(C)Oc1ccc(Nc2nc(-c3ccc(N)nc3)cs2)cc1C(F)(F)F (stereo not drawn) [compound 677, 5-(2-(3-(trifluoromethyl)-4-(octan-2-yloxy)phenylamino)thiazol-4-yl)pyridin-2-amine] | < 1000 nM
12 | CCCCCCCCOc1ccc(Nc2nc(-c3ccc(NC(C)=O)nc3)cs2)cc1C(F)(F)F [compound 678, N-(5-(2-(3-(trifluoromethyl)-4-(octyloxy)phenylamino)thiazol-4-yl)pyridin-2-yl)acetamide] | < 1000 nM
13 | CCCCCCCCOc1ccc(Nc2nc(-c3ccc(N)nc3)cs2)cc1C(F)(F)F [compound 679, 5-(2-(3-(trifluoromethyl)-4-(octyloxy)phenylamino)thiazol-4-yl)pyridin-2-amine] | < 1000 nM
14 | CCCC(CCC)Oc1ccc(Nc2nc(-c3cccnc3)cs2)cc1C(F)(F)F [compound 680, N-(3-(trifluoromethyl)-4-(heptan-4-yloxy)phenyl)-4-(pyridin-3-yl)thiazol-2-amine] | < 1000 nM
15 | CCCCCCCCOc1ccc(Nc2nc(-c3ncccn3)cs2)cc1C(F)(F)F [compound 681, N-(3-(trifluoromethyl)-4-(octyloxy)phenyl)-4-(pyrimidin-2-yl)thiazol-2-amine] | < 1000 nM
16 | FC(F)(F)c1cc(Nc2nc(-c3cccnc3)cs2)ccc1OCCCc1ccccc1 [compound 682, N-(4-(3-phenylpropoxy)-3-(trifluoromethyl)phenyl)-4-(pyridin-3-yl)thiazol-2-amine] | < 1000 nM
17 | CCCCCCCCOc1cccc(Nc2nc(-c3cccnc3)cs2)c1 [compound 683, N-(3-(octyloxy)phenyl)-4-(pyridin-3-yl)thiazol-2-amine] | < 1000 nM
18 | CCCCCCCCN(C)c1ncc(Nc2nc(-c3cccnc3)cs2)cc1C(F)(F)F [compound 684, 3-(trifluoromethyl)-N^2-methyl-N^2-octyl-N^5-(4-(pyridin-3-yl)thiazol-2-yl)pyridine-2,5-diamine] | > 10000 nM
19 | CCCCCCCCOc1ccc(Nc2nc(-c3ccc(N)nc3)cs2)cc1 [compound 685, 5-(2-(4-(octyloxy)phenylamino)thiazol-4-yl)pyridin-2-amine] | < 1000 nM
20 | CCCCCCCCOc1ccc(Nc2nc(-c3cnc(NC(C)=O)c(C)c3)cs2)cc1C(F)(F)F [compound 686, N-(5-(2-(3-(trifluoromethyl)-4-(octyloxy)phenylamino)thiazol-4-yl)-3-methylpyridin-2-yl)acetamide] | < 1000 nM

Row | Structure (SMILES) | EC50
21 | CCCCCCCCOc1ccc(Nc2nc(-c3cnc(N)c(C)c3)cs2)cc1C(F)(F)F [compound 687, 5-(2-(3-(trifluoromethyl)-4-(octyloxy)phenylamino)thiazol-4-yl)-3-methylpyridin-2-amine] | < 1000 nM
22 | CCCCCCCCOc1ccc(Nc2nc(-c3cnc(NC(C)=O)c(C)c3)cs2)cc1 [compound 688, N-(5-(2-(4-(octyloxy)phenylamino)thiazol-4-yl)-3-methylpyridin-2-yl)acetamide] | 1000 to 10000 nM
23 | CCCCCCCCN(C)c1ccc(Nc2nc(-c3cnc(OC)nc3)cs2)cc1C(F)(F)F [compound 689, 2-(trifluoromethyl)-N^4-(4-(2-methoxypyrimidin-5-yl)thiazol-2-yl)-N^1-methyl-N-octylbenzene-1,4-diamine] | < 1000 nM
24 | CC(C)=CCC/C(C)=C/COc1ccc(Nc2nc(-c3cccnc3)cs2)cc1C(F)(F)F [compound 690, N-(4-((E)-3,7-dimethylocta-2,6-dienyloxy)-3-(trifluoromethyl)phenyl)-4-(pyridin-3-yl)thiazol-2-amine] | < 1000 nM
25 | CC(C)CCCC(C)CCOc1ccc(Nc2nc(-c3cccnc3)cs2)cc1C(F)(F)F (stereo not drawn) [compound 691, N-(4-(3,7-dimethyloctyloxy)-3-(trifluoromethyl)phenyl)-4-(pyridin-3-yl)thiazol-2-amine] | < 1000 nM
26 | CCCCCCCCSc1ccc(Nc2nc(-c3cccnc3)cs2)cc1C(F)(F)F [compound 692, N-(3-(trifluoromethyl)-4-(octylthio)phenyl)-4-(pyridin-3-yl)thiazol-2-amine] | < 1000 nM
27 | FC(F)(F)c1cc(Nc2nc(-c3cccnc3)cs2)ccc1OCCCN1CCOCC1 [compound 693, N-(4-(3-morpholinopropoxy)-3-(trifluoromethyl)phenyl)-4-(pyridin-3-yl)thiazol-2-amine] | 1000 to 10000 nM
28 | CN1CCN(CCCOc2ccc(Nc3nc(-c4cccnc4)cs3)cc2C(F)(F)F)CC1 [compound 694, N-(4-(3-(4-methylpiperazin-1-yl)propoxy)-3-(trifluoromethyl)phenyl)-4-(pyridin-3-yl)thiazol-2-amine] | 1000 to 10000 nM
29 | CN(C)CCCOc1ccc(Nc2nc(-c3cccnc3)cs2)cc1C(F)(F)F [compound 695, N-(4-(3-(dimethylamino)propoxy)-3-(trifluoromethyl)phenyl)-4-(pyridin-3-yl)thiazol-2-amine] | 1000 to 10000 nM
30 | FC(F)(F)c1cc(Nc2nc(-c3cccnc3)cs2)ccc1OCCCN1CCCC1 [compound 696, N-(4-(3-(pyrrolidin-1-yl)propoxy)-3-(trifluoromethyl)phenyl)-4-(pyridin-3-yl)thiazol-2-amine] | 1000 to 10000 nM
31 | CCCCCCCCOC(=O)c1ccc(Nc2nc(-c3cccnc3)cs2)cc1C(F)(F)F [compound 697, octyl 4-(4-(pyridin-3-yl)thiazol-2-ylamino)-2-(trifluoromethyl)benzoate] | < 1000 nM
32 | FC(F)(F)c1cc(Nc2nc(-c3cccnc3)cs2)ccc1N1CCC2CCCCC2C1 (stereo not drawn) [compound 698, N-(3-(trifluoromethyl)-4-(octahydroisoquinolin-2(1H)-yl)phenyl)-4-(pyridin-3-yl)thiazol-2-amine] | < 1000 nM
33 | O=C(c1ccc(Nc2nc(-c3ccc(F)cc3)cs2)cc1C(F)(F)F)N1CCC2CCCCC2C1 (stereo not drawn) [compound 699, (4-(4-(4-fluorophenyl)thiazol-2-ylamino)-2-(trifluoromethyl)phenyl)(octahy-droisoquinolin-2(1H)-yl)methanone] | > 10000 nM
34 | CCCCCCCCOC(=O)c1ccc(Nc2nc(-c3ccc(F)cc3)cs2)cc1C(F)(F)F [compound 700, octyl 4-(4-(4-fluorophenyl)thiazol-2-ylamino)-2-(trifluoromethyl)benzoate] | < 1000 nM
35 | CCCCCCCCOc1ccc(Nc2nc(-c3ccc4ncccc4n3)cs2)cc1C(F)(F)F [compound 701, 4-(6-deuterated-1,5-naphthyndin-2-yl)-N-(4-(octyloxy)-3-(trifluoromethyl)phenyl)thiazol-2-amine] | < 1000 nM
36 | CCCCCCCCOc1ccc(Nc2nc(-c3cncnc3-c3ccccc3)cs2)cc1C(F)(F)F [compound 702, N-(3-(trifluoromethyl)-4-(octyloxy)phenyl)-4-(4-phenylpyrimidin-5-yl)thiazol-2-amine] | < 1000 nM
37 | CCCCCCCCOc1ccc(Nc2nc(-c3ccc(C#N)o3)cs2)cc1C(F)(F)F [compound 703, 5-(2-(3-(trifluoromethyl)-4-(octyloxy)phenylamino)thiazol-4-yl)furan-2-carbonitrile] | < 1000 nM
38 | CCCCCCCCOc1ccc(Nc2nc(-c3ccc4oc(CO)cc4c3)cs2)cc1C(F)(F)F [compound 704, (5-(2-(3-(trifluoromethyl)-4-(octyloxy)phenylamino)thiazol-4-yl)benzofuran-2-yl)methanol] | < 1000 nM
39 | CCCCCCCCOc1ccc(Nc2nc(-c3cccc(OC)n3)cs2)cc1C(F)(F)F [compound 705, N-(3-(trifluoromethyl)-4-(octyloxy)phenyl)-4-(6-methoxypyridin-2-yl)thiazol-2-amine] | < 1000 nM
